From patent EP2857399A1, “Compounds useful for the treatment of PDE5 inhibitor-poorly responsive erectile dysfunction” (GenKyoTex SA, priority 2013, dated 2015)

System: diabetic GK rats
Test: Erectile response to electrical stimulation of the cavernous nerve (ICP monitoring) in a rat model of type II diabetes mellitus associated erectile dysfunction with impaired sildenafil response
Type: in vivo, Goto-Kakizaki (GK) rats
Experimental: The efficacy of compounds of Formula (I) for restoring or increasing responsiveness to treatment with a PDE5 inhibitor (sildenafil) is assessed in a rat model of type II diabetes mellitus associated erectile dysfunction in Goto-Kakizaki (GK) rats. Those rats show the main features of the metabolic, hormonal and vascular disorders usually described in T2D patients (Portha et al., 2001, Diabetes 50 (Suppl. 1): S89-S93; Portha et al., 1991, Diabetes 40, 486-491).
Adult male Wistar and age-matched Goto-Kakizaki (GK) rats (obtained by repeated inbreeding of non-diabetic Wistar rats selected at the upper limit or normal distribution if glucose tolerance as described in Goto et al., 1975, Proc. Jpn Acad, 51, 80-5 are housed at least 7 days prior to the beginning of the experiments with free access to standard chow and water and maintained on an inversed 12 h dark/light cycle (10:00/22:00).
At 15 weeks of age, treatment period is started; n=24 GK rats (Groups 4 & 5) receive a dose of compound 5 (30 mg/kg) while n=24 GK (Groups 1 and 3) rats and n=12 Wistar (Group 2) rats receive an equivalent volume of vehicle (25% HPβCD) of compound 5 by daily oral gavage for 28 days.
On day 29th after starting treatment administration, the rats (19 weeks of age) undergo an evaluation of their erectile response measured after electrical stimulation (ES) of the cavernous nerve (CN) by monitoring intracavernous pressure (ICP). For this purpose, rats are anesthetized (urethane […]) after a 3-hour fasting period (necessary for plasma glucose dosage), their temperature maintained at 37°C using a homeothermic blanket. The carotid artery was catheterized to record blood pressure (BP) via a pressure transducer (Elcomatic 750, Glasgow, UK). Both jugular veins were also catheterised to allow intravenous injections. CN is surgically exposed at the lateral aspect of the prostate and mounted on a bipolar platinum electrode connected to an electrical stimulator (AMS 2100, Phymep, France).
As a consequence, there are 16 hours between animals receiving their final administration of compound 5 or vehicle and initiation of evaluation of their erectile function. Rats were anesthetized and then received a 1st intravenous injection (iv) 25%HPβCD, the vehicle of compound 5, 60 minutes prior to the evaluation period of treatment effect. All rats also received a 2nd iv injection of either sildenafil (Sequoia research, Pangbourne, UK) 0.3mg/kg (groups 3 & 5) or normal saline, the vehicle of sildenafil, (groups 1, 2, 4) 56 minutes after the first injection.
At T=-15 minutes, the continuous recording of BP and ICP started. […] Two stimulations of the CN at 15Hz, 1 ms for 45 s were performed to elicit an increase of ICP to certify the correct implantation of the catheter and to assess baseline erectile response prior treatment
At T=0 minute, 25% HPβCD was injected intravenously.
At T+4 minutes and T+30 minutes, the CN was stimulated at 10Hz, 1ms for 45s.At T+56 minutes, sildenafil (0.3mg/kg) or normal saline was intravenously injected.
At T+ 60 minutes, and at 3 minutes intervals thereafter, the CN was stimulated at 6V, 1 ms for 45 s by different stimulation frequencies (10 Hz then 0, 2.5, 5, 7.5, 12.5 and 15 Hz) in a randomized manner in order to assess the erectile responses. These different electrical stimulations were repeated twice in view of establishing a frequency-response curve for each animal.
At T+ 120 minutes, the recording ended. […]

SMILES | AUCtot/MAP following ES CN compared to control healthy Wistar rats (acute sildenafil 0.3 mg/kg combined with chronic compound 5 30mg/kg/day, Figure 1B) | AUCtot/MAP (pro-erectile facilitator effects) (chronic compound 5 30mg/kg/day combined with acute sildenafil iv 0.3mg/kg, p≤0.0001 vs. GK rats, 2-way ANOVA with interaction, figure 1B) | AUC45/MAP (pro-erectile facilitator effects) (chronic compound 5 30mg/kg/day combined with acute sildenafil iv 0.3mg/kg, p≤0.0001 vs. GK rats, 2-way ANOVA, Figure 1A) | erectile responses (AUC45/MAP) compared to healthy Wistar rats (chronic compound 5 alone at 30mg/kg/day, Figure 1A) | increase in AUCtot/MAP compared to each compound administered alone (combination of chronic compound 5 30mg/kg/day and acute sildenafil 0.3mg/kg, p≤0.0001 vs acute sildenafil, p≤0.05 vs chronic compound 5, Figure 1B) | AUCtot/MAP (erectile responses to ES CN) (compound 5 alone, 30mg/kg once daily oral for 4 weeks, compared to GK rats treated with vehicle, p=0.147, figure 1B) | AUC45/MAP (erectile responses to ES CN) (compound 5 alone, 30mg/kg once daily oral for 4 weeks, compared to GK rats treated with vehicle, p≤0.05, figure 1A) | erectile responses (AUC45/MAP) compared to healthy Wistar rats (acute sildenafil alone, iv single administration 0.3mg/kg, Figure 1A) | erectile responses to ES CN (acute sildenafil alone, iv single administration at 0.3mg/kg)
CN(C)c1cccc(-c2c3c(=O)n(-c4ccccc4Cl)[nH]c3cc(=O)n2C)c1 [compound 5, 2-(2-chlorophenyl)-4-[3-(dimethylamino)phenyl]-5-methyl-1H-pyrazolo[4,3-c] pyridine-3,6(2H,5H)-dione] | not significantly different | further increased | further increased | significantly lower | statistically significant | no statistical difference | statistically greater overall erectile responses |  | 
CCCc1nn(C)c2c(=O)[nH]c(-c3cc(S(=O)(=O)N4CCN(C)CC4)ccc3OCC)nc12 [sildenafil, reference compound] |  |  |  |  |  |  |  | significantly lower | pro-erectile facilitator effects
